Values of other authors as cited in US20260262633A1, “BORDEAUX MIXTURE/ORGANOSULFUR FUNGICIDE NANO-SUSPENSION DISPERSION” (priority 2023, published 2026).

solubility in water: 1.06 µg/mL
Substance: basic copper sulfate
